Laboratory results reported in patent publication US8822691B2, “Pesticidal carboxamides” (Bayer CropScience AG, priority 2009, dated 2014).
Several values for one entry are separate records, joined by “and”; a condition that tells them apart may be missing. Equal values may be shown once.

How the values were obtained:
Assay type in all cases: in vivo
Aulacophora femoralis = test: Test against cucurbit leaf beetle (Aulacophora femoralis), leaf dip; conditions: active compound concentration of 500 ppm, second instar larvae on cucumber leaves, after 7 days; for pest or weed control at 500 ppm: Aulacophora, foliar, 168 h, read-out: insecticidal activity
Experimental: (§1) Unless not mentioned otherwise, the test solutions were prepared as follows:
(§2) Containing as solvent: Dimethylformamide, 3 parts by weight; and as emulsifier: Polyoxyethylene alkyl phenyl ether, 1 part by weight
(§3) To prepare the test solution, 1 part by weight of an active compound is mixed with the above-mentioned amount of solvent containing the above-mentioned amount of emulsifier, and the mixture is diluted with water to the desired concentration.
Leaves of cucumber were immersed in the test solution at the appropriate concentration, and the leaves were dried in air. The leaves were then put in a plastic cup containing sterilized black soil and five Aulacophora femoralis at second instar larvae were released in the cup. The cups were placed in a temperature-controlled chamber at 25° C. After 7 days, the number of dead larvae was counted, and thus the insecticidal activity was calculated. An insecticidal activity of 100% means that all larvae were killed, whereas an insecticidal activity of 0% means that no larva was killed.

Lucilia cuprina = Lucilia cuprina (48 h) larval test; conditions: application rate of 100 ppm; 1st instar larvae; after 48 hrs
Experimental: Species: Lucilia cuprina 1st instar larvae (age 24 hrs)
(§4) Solvent: dimethyl sulfoxide
10 mg active compound are dissolve in 0.5 ml dimethyl sulfoxide. Serial dilutions are made to obtain the desired rates. Approximately 20 Lucilia cuprina 1st instar larvae are transferred into a test tube containing 1 cm^3 of minced horse meat and 0.5 ml aqueous dilution of test compound. After 48 hrs percentage of larval mortality are recorded. 100% efficacy all larvae are killed, % efficacy normally developed larvae after 48 hrs.

Ctenocephalides felis = test: Ctenocephalides felis-test (CTECFE); conditions: application rate of 100 ppm in cattle blood; adult unfed fleas; after 2 days
Experimental: as §4
To produce a suitable preparation of active compound, 10 mg of active compound are dissolved in 0.5 ml solvent, and the concentrate is diluted with cattle blood to the desired concentration. Approximately 20 adult unfed (Ctenocepahlides felis) are placed in flea chambers. The blood chamber, sealed with parafilm on the bottom, are filled with cattle blood supplied with compound solution and placed on top of the flea chamber, so that the fleas are able to suck the blood. The blood chamber is heated to 37° C. whereas the flea chamber is kept at room temperature. After 2 days mortality in % is determined. 100% means that all the fleas have been killed; 0% means that none of the fleas have been killed.

Spodoptera litura = test: Test against tobacco cutworm (Spodoptera litura) larvae, leaf dip; conditions: active compound concentration of 100 ppm, third instar larvae on sweet potato leaves, after 7 days; for pest or weed control at 100 ppm: foliar, 168 h, read-out: insecticidal activity
Experimental: as §1, §2, §3
Leaves of sweet potato were immersed in the test solution at the appropriate concentration, and the leaves were dried in air. The leaves were then placed in a petri dish having a diameter of 9 cm, and ten Spodoptera litura at third instar larvae were released therein. The petri dishes were placed in a temperature-controlled chamber at 25° C. After 2 days and 4 days more sweet potato leaves were added. After 7 days, the number of dead larvae was counted to calculate the insecticidal activity. An insecticidal activity of 100% means that all larvae were killed, whereas an insecticidal activity of 0% means that no larva was killed. In the current test, the results of two petri dishes for each treatment were averaged.

Tetranychus urticae = test: Test against two-spotted spider mite (Tetranychus urticae), spray; conditions: active compound concentration of 500 ppm, adult mites on kidney bean, after 7 days; for pest or weed control at 500 ppm: Tetranychus urticae, 168 h, read-out: acaricidal activity
Experimental: as §1, §2, §3
50 to 100 adult mites of Tetranychus urticae were inoculated to leaves of kidney bean at two-leaf stage planted in a pot of 6 cm in diameter. After one day, test solution at the appropriate concentration was sprayed thereon in a sufficient amount using a spray gun. After the spraying, the plant pot was placed inside a greenhouse, and after 7 days, the acaricidal activity was calculated. An acaricidal activity of 100% means that all mites were killed, whereas an acaricidal activity of 0% means that no mite was killed.

Musca domestica = test: Musca domestica-test; conditions: application rate of 100 ppm; adults; after 2 days
Experimental: as §4
To produce a suitable preparation of active compound, 10 mg of active compound are dissolved in 0.5 ml solvent, and the concentrate is diluted with water to the desired concentration. Prior to the assay, a piece of kitchen sponge is soaked with a mixture of sugar and compound solution and placed into a container. 10 adults (Musca domestica) are placed into the container and closed with a perforated lid. After 2 days mortality in % is determined. 100% means that all the flies have been killed; 0% means that none of the flies have been killed.

| SMILES | insecticidal activity (Aulacophora femoralis) | insecticidal activity (Spodoptera litura) | acaricidal activity (Tetranychus urticae) | also measured |
| --- | --- | --- | --- | --- |
| N#Cc1ccc2cc(C(=O)Nc3c(Br)cc(C(F)(F)F)cc3Br)ccc2n1 [2-3] | 100% | – | – | activity (larval mortality) (Lucilia cuprina): 80%; activity (mortality) (Ctenocephalides felis): 90% |
| CCc1cc(C(F)(C(F)(F)F)C(F)(F)F)cc(C)c1NC(=O)c1ccc2nc(Cl)ccc2c1 [2-29] | 100% | 100% | 100% | – |
| CCc1cc(C(F)(C(F)(F)F)C(F)(F)F)cc(C)c1NC(=O)c1ccc2nc(C#N)ccc2c1 [2-31] | 100% | 100% | 100% | – |
| Cc1cc(C(F)(C(F)(F)F)C(F)(F)F)cc(Br)c1NC(=O)c1ccc2nc(C#N)ccc2c1 [2-40] | 100% | 100% | 100% | activity (mortality) (Ctenocephalides felis): 95% |
| CCc1cc(C(F)(C(F)(F)F)C(F)(F)F)cc(CC)c1NC(=O)c1ccc2nc(C#N)ccc2c1 [2-46] | 100% | 100% | 100% | – |
| CCc1cc(C(F)(C(F)(F)F)C(F)(F)F)cc(Br)c1NC(=O)c1ccc2nc(C#N)ccc2c1 [2-49] | 100% | 100% | 100% | activity (mortality) (Ctenocephalides felis): 95% |
| N#Cc1ccc2cc(C(=O)Nc3c(Br)cc(C(F)(C(F)(F)F)C(F)(F)F)cc3Br)ccc2n1 [2-64] | 100% | 100% | 100% | – |
| N#Cc1ccc2cc(C(=O)Nc3c(Br)cc(C(F)(C(F)(F)F)C(F)(F)F)cc3SC(F)(F)F)ccc2n1 [2-66] | 100% | 100% | 100% | – |
| CCc1cc(C(n2cc(Cl)cn2)(C(F)(F)F)C(F)(F)F)cc(C)c1NC(=O)c1ccc2nc(C#N)ccc2c1 [2-83] | 100% | 100% | 100% | – |
| Cc1cc(C(F)(C(F)(F)F)C(F)(F)C(F)(F)F)cc(C)c1NC(=O)c1ccc2nc(C#N)ccc2c1 (centres unmarked) [2-87] | 100% | 100% | 100% | – |
| CCc1cc(C(F)(C(F)(F)F)C(F)(F)C(F)(F)F)cc(C)c1NC(=O)c1ccc2ncccc2c1 (centres unmarked) [2-88] | 100% | 100% | – | activity (mortality) (Ctenocephalides felis): 95% |
| CCc1cc(C(F)(C(F)(F)F)C(F)(F)C(F)(F)F)cc(C)c1NC(=O)c1ccc2nc(C#N)ccc2c1 (centres unmarked) [2-90] | 100% | 100% | 100% | activity (mortality) (Musca domestica): 80% |
| O=C(Nc1c(Br)cc(C(F)(C(F)(F)F)C(F)(F)C(F)(F)F)cc1Br)c1ccc2ncccc2c1 (centres unmarked) [2-108] | 100% | 100% | – | activity (mortality) (Ctenocephalides felis): 80% and 95%; activity (mortality) (Musca domestica): 80% |
| N#Cc1ccc2cc(C(=O)Nc3c(Br)cc(C(F)(C(F)(F)F)C(F)(F)C(F)(F)F)cc3Br)ccc2n1 (centres unmarked) [2-110] | 100% | 100% | 100% | – |
| CCc1cc(C2(F)C(F)(F)C(F)(F)C(F)(F)C(F)(F)C2(F)F)cc(C)c1NC(=O)c1ccc2nc(C#N)ccc2c1 [2-130] | 100% | 100% | 100% | – |
| N#Cc1ccc2cc(C(=O)Nc3c(Br)cc(C4(F)C(F)(F)C(F)(F)C(F)(F)C(F)(F)C4(F)F)cc3Br)ccc2n1 [2-133] | 100% | 100% | 100% | activity (mortality) (Ctenocephalides felis): 90% |
| Cc1cc(C(F)(C(F)(F)F)C(F)(F)Br)cc(C)c1NC(=O)c1ccc2nc(C#N)ccc2c1 (centres unmarked) [2-191] | 100% | 100% | 100% | – |
| CCc1cc(C(F)(C(F)(F)F)C(F)(F)Br)cc(C)c1NC(=O)c1ccc2ncccc2c1 (centres unmarked) [2-192] | 100% | – | 100% | – |
| CCc1cc(C(F)(C(F)(F)F)C(F)(F)Br)cc(C)c1NC(=O)c1ccc2nc(C#N)ccc2c1 (centres unmarked) [2-194] | 100% | 100% | 100% | – |
| N#Cc1ccc2cc(C(=O)Nc3c(Br)cc(C(F)(C(F)(F)F)C(F)(F)Br)cc3Br)ccc2n1 (centres unmarked) [2-197] | 100% | 100% | 100% | – |
| O=C(Nc1c(I)cc(C(F)(C(F)(F)F)C(F)(F)Br)cc1I)c1ccc2c(ccc[n+]2[O-])c1 (centres unmarked) [2-199] | 100% | – | 100% | – |
| N#Cc1ccc2cc(C(=O)Nc3c(Br)cc(C(F)(F)C(F)(F)F)cc3OC(F)F)ccc2n1 [2-221] | 100% | 100% | 100% | – |
| N#Cc1ccc2cc(C(=O)Nc3c(Br)cc(C(F)(C(F)(F)F)C(F)(F)F)cc3C(F)(F)F)ccc2n1 [2-249] | 100% | 100% | 100% | – |
| Cc1cc(C(F)(C(F)(F)F)C(F)(F)F)cc(OC(F)F)c1NC(=O)c1ccc2nc(C#N)ccc2c1 [2-261] | 100% | 100% | 100% | – |
| N#Cc1ccc2cc(C(=O)Nc3c(Cl)cc(C(F)(C(F)(F)F)C(F)(F)C(F)(F)F)cc3OC(F)F)ccc2n1 (centres unmarked) [2-274] | 100% | 100% | 100% | – |
| CCc1cc(C(F)(C(F)(F)F)C(F)(F)C(F)(F)F)cc(C)c1NC(=O)c1ccc2ncsc2c1 (centres unmarked) [4-33] | 100% | 100% | 100% | – |
| N#Cc1ccc2cc(C(=O)Nc3c(Cl)cc(C(F)(C(F)(F)F)C(F)(F)F)cc3OC(F)F)ccc2n1 [Compound No. 2-231, N-[2-chloro-6-(difluoromethoxy)-4-(1,1,1,2,3,3,3-heptafluoropropan-2-yl)phenyl]-2-cyanoquinoline-6-carboxamide] | – | – | – | pest or weed control at 100 ppm (Spodoptera litura): 100%; pest or weed control at 500 ppm (Tetranychus urticae): 100%; pest or weed control at 500 ppm (Aulacophora femoralis): 100% |
| CCc1cc(C(F)(C(F)(F)F)C(F)(F)C(F)(F)F)cc(C)c1NC(=O)c1ccc2nc(C#N)cc(Br)c2c1 (centres unmarked) [Compound No. 2-269, 4-bromo-2-cyano-N-[2-ethyl-6-methyl-4-(1,1,1,2,3,3,4,4,4-nonafluorobutan-2-yl)phenyl]quinoline-6-carboxamide] | – | – | – | pest or weed control at 100 ppm (Spodoptera litura): 100%; pest or weed control at 500 ppm (Tetranychus urticae): 100%; pest or weed control at 500 ppm (Aulacophora femoralis): 100% |
| CCc1cc(C(F)(C(F)(F)F)C(F)(F)C(F)(F)F)cc(C)c1NC(=O)c1ccc2nc(C#N)sc2c1 (centres unmarked) [Compound No. 4-34, 2-cyano-N-[2-ethyl-6-methyl-4-(1,1,1,2,3,3,4,4,4-nonafluorobutan-2-yl)phenyl]-1,3-benzothiazole-6-carboxamide] | – | – | – | pest or weed control at 100 ppm (Spodoptera litura): 100%; pest or weed control at 500 ppm (Tetranychus urticae): 100% |
